Patent publication US20260049071A1, “PROTEIN TYROSINE KINASE INHIBITOR AND MEDICAL USE THEREOF” (BEYANG THERAPEUTICS CO., LTD., priority 2022, published 2026)

Experiments:
[1] = target: KDR (VEGFR2) (Homo sapiens (Human), UniProt P35968); experiment: Kinase inhibition, Mobility Shift Assay (VEGFR2); type: biochemical
Procedure: (§1) This assay directly monitored the ability of compounds to inhibit kinase phosphorylation by measuring non-phosphorylated and phosphorylated substrates in kinase reactions by using Mobility Shift Assays/IMAP™ analysis.
(§2) Add the kinase and DTT to 1× kinase buffer to form a 2.5× kinase solution; transfer 10 μL of 2.5× kinase solution to a 384-well reaction plate and add 1× kinase buffer to negative control wells. Incubate the plate for 10 min at room temperature; add FAM-labeled peptides, MgCl2, ATP and other reagents to 1× kinase buffer to form a 2.5× substrate solution; transfer 10 μL of the above 2.5× substrate solution to the 384-well reaction plate; incubate the plate at 28° C. for different times, and add 25 μL of stop solution to the 384-well reaction plate to stop the reaction. Read the conversion ratio data on CaliperEZ Reader II. Convert conversion rates into inhibition ratio data.
(§3) “Min” indicates the readout of the control well without the addition of kinase; and “Max” indicates the readout of the control well with the addition of DMSO. Fit IC50 values with XLFit excel add-in version 5.4.0.8.
(§4) X indicates the log value of compound concentration, and Y indicates the inhibition ratio (% inhibition).

[2] = target: FLT1 (VEGFR1) (Homo sapiens (Human), UniProt P17948); experiment: Kinase inhibition, Mobility Shift Assay (VEGFR1); type: biochemical
Procedure: as §1, §2, §3, §4

[3] = target: FLT4 (VEGFR3) (Homo sapiens (Human), UniProt P35916); experiment: Kinase inhibition, Mobility Shift Assay (VEGFR3); type: biochemical
Procedure: as §1, §2, §3, §4

[4] = system: melanin; experiment: Binding capacity of compounds to melanin; type: in vitro ADME; details: Sepia officinalis (cuttlefish), melanin suspension (1 mg/mL); 1 mg/mL melanin suspension in PBS pH 7.4, 2 μM compound, 2 h at 37° C.; read-out: Fu % (percentage of free drug, not bound to melanin)
Description: Pigmented eye tissues contain melanin in intracellular melanosomes. Drugs bind to melanin to varying degrees, ranging from non-binding to extensive binding. Therefore, melanin binding is an important feature that affects drug delivery and biodistribution in the eye. The binding capacity of a compound to the melanin must be considered in the development of ophthalmic drugs.
Melanin was derived from the melanin of cuttlefish (Sepia officinalis) and was commercially available from Sigma Aldrich (St Louis, MO).
First, prepare 1 mg/mL melanin suspension with PBS (pH 7.4). As a washing step for the matrix, centrifuge the suspended particles for 5 min at 3000 rpm. Resuspend the resulting particles in a fresh PBS buffer, heat to 37° C. over continuous shaking and incubate it for 1 h. Accurately pipette 2 μL of the test stock solution (0.1 mM) into 98 μL of melanin suspension (1 mg/mL) to achieve a final incubation concentration of 2 μM. Similarly, accurately pipette 2 μL of the stock solution (0.1 mM) to 98 μL of PBS buffer (containing 0.1% BSA) as a blank control sample. Incubate the samples in a shaker (80-90 rpm) for 2 h at 37° C. Then, centrifuge the samples at room temperature. Pipette 50 μL of the supernatant and add 50 μL of precipitant (containing an internal standard). After protein precipitation of all the above samples, centrifuge the samples to collect the supernatants, dilute the supernatants with water (if necessary) and inject them for analysis. At the same time, measure the positive controls, including the high-binding compounds Sunitinib and chloroquine and the low-binding compound celecoxib. Establish an LC-MS/MS method for determining compound concentrations, and calibrate the peak area ratio of analyte/internal standard (Analyte/AIS) in the measured sample by the dilution factor to take it as an alternative concentration for the sample for data processing. The binding rate (Fh) of a compound in melanin was calculated as: […]
Ctest was the concentration of the compound in the melanin-incubated sample or the peak area ratio of the test compound to the internal standard. Ccontrol was the concentration of the compound in the blank control sample or the peak area ratio of the test compound to the internal standard. Percentage of free drug (Fu %)=100−Fb The binding rates of the compounds of the present invention to melanin are shown in the table below: […]

[5] = target: EGFR (Homo sapiens (Human), UniProt P00533); experiment: Kinase inhibition, Mobility Shift Assay (EGFR); type: biochemical
Procedure: as §1, §2, §3, §4

Chain of FLT4 (VEGFR3) (P35916 25-1363): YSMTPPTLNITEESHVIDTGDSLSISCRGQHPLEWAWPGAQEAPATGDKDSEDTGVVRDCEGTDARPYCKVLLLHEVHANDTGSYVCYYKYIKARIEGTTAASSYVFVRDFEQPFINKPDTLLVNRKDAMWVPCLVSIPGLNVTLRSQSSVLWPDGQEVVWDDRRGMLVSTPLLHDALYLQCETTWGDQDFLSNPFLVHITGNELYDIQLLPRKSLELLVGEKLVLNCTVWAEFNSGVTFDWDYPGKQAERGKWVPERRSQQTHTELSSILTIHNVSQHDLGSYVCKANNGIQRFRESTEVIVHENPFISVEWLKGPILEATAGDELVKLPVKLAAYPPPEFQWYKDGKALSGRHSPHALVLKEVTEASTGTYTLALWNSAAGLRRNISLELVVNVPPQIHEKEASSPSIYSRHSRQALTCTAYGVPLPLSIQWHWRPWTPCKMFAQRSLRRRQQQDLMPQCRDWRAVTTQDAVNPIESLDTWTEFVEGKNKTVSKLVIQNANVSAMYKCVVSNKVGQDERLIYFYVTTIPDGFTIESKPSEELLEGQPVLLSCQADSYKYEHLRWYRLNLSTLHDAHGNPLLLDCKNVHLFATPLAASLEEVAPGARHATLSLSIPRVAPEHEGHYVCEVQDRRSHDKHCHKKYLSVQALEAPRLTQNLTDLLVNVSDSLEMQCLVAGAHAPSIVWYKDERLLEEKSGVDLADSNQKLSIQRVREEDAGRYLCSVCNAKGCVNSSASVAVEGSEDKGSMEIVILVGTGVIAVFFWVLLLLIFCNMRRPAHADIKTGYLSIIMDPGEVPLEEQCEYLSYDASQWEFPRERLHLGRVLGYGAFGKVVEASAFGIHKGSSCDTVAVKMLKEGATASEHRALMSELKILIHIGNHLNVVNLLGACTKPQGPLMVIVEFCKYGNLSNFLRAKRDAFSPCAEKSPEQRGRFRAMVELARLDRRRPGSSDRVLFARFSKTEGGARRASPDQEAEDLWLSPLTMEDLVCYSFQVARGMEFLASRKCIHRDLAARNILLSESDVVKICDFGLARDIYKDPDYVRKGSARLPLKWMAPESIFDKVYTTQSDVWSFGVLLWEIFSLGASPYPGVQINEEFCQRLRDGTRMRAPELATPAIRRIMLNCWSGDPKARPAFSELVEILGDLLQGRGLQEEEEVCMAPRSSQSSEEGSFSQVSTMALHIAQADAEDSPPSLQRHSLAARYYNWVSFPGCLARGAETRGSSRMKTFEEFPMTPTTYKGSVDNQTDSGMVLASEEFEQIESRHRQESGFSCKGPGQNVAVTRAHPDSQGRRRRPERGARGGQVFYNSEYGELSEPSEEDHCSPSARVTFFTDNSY
Chain of FLT1 (VEGFR1) (P17948 27-1338): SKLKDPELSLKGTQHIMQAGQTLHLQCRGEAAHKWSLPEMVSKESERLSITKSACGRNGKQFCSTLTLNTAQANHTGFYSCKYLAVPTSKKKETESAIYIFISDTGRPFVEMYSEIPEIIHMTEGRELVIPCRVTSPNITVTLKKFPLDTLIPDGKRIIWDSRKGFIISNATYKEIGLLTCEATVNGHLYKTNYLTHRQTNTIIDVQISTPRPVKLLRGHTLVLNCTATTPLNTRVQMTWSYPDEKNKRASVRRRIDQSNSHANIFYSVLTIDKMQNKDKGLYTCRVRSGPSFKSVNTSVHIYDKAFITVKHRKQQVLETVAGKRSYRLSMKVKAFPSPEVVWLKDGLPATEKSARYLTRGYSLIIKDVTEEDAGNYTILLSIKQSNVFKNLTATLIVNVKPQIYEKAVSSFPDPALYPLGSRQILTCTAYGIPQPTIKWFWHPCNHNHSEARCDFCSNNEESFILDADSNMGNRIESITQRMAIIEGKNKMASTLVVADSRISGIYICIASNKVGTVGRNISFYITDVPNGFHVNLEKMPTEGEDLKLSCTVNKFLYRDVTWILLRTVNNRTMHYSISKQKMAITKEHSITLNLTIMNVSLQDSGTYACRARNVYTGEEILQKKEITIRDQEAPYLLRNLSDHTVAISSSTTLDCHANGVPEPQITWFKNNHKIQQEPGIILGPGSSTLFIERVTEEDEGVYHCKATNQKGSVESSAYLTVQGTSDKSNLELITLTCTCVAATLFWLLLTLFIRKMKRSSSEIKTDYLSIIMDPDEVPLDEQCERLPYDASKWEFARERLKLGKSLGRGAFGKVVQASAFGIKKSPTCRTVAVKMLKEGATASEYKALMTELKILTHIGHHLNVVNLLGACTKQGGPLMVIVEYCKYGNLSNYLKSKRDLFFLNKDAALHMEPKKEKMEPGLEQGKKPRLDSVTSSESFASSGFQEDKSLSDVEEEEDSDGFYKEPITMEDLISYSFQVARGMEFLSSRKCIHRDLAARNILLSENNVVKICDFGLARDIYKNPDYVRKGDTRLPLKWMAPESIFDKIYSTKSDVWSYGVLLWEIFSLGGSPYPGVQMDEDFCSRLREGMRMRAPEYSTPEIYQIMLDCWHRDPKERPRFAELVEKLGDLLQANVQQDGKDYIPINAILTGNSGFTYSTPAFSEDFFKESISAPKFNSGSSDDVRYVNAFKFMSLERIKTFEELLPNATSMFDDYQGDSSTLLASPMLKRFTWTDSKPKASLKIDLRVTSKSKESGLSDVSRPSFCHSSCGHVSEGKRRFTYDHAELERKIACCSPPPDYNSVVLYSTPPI
Chain of EGFR (P00533 25-1210): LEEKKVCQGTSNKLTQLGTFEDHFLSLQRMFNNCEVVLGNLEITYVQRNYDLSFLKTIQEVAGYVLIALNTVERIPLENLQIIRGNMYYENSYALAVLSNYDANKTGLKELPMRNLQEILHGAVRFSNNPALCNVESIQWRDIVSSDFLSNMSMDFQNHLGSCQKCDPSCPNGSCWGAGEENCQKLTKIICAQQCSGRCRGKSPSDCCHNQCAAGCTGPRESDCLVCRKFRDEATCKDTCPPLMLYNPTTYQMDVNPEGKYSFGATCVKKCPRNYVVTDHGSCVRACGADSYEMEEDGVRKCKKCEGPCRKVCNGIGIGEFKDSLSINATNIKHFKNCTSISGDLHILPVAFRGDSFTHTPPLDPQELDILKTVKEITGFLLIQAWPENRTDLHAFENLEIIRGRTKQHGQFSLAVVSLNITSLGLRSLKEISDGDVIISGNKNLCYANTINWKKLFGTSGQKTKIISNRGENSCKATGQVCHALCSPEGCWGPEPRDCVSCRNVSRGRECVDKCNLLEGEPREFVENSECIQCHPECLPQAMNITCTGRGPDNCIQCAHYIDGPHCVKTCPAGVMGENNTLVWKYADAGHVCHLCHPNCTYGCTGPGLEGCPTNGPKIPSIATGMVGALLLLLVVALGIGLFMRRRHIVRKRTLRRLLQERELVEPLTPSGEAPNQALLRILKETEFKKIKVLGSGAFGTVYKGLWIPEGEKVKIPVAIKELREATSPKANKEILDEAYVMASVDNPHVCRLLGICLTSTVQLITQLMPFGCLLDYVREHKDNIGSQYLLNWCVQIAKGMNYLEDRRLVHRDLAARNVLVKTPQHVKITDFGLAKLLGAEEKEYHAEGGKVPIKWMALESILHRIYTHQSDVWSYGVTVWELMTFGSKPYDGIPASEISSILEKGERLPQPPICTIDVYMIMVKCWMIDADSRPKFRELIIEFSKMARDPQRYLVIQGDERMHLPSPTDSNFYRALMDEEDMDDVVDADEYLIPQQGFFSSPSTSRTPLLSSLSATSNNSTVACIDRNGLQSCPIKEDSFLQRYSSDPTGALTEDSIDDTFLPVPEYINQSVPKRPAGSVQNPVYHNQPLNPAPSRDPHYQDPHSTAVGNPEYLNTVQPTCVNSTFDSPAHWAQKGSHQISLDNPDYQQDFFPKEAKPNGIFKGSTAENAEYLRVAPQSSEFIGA
Chain of KDR (VEGFR2) (P35968 790-1356): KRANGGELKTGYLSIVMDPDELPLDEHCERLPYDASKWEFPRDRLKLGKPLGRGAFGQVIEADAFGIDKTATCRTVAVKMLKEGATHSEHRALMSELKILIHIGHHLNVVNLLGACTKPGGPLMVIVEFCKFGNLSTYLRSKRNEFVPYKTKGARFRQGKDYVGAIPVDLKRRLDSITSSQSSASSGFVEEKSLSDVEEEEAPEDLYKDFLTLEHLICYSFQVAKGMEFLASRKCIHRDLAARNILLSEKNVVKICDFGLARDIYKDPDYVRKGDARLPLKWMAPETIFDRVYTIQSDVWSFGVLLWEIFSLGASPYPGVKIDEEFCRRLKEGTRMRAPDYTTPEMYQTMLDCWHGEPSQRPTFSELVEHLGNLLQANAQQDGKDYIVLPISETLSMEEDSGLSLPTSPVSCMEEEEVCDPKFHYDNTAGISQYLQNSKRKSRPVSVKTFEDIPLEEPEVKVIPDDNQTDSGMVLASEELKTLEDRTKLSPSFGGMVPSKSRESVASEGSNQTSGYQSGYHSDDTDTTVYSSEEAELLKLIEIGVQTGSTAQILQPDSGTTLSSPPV

IC50 [1] [nM]	IC50 [2] [nM]	IC50 [3] [nM]	fraction unbound at 2 h, 2 μM [4]	IC50 [5] [nM]	Compound
≤ 1	≤ 1	≤ 1	0.01 to 0.05	6000 to 60000	CNC(=O)c1ccccc1Sc1ccc2c(/C=C/c3ccc(OCCC4CCN(C)CC4)cn3)n[nH]c2c1 [Compound I-5, N-methyl-2-({3-[(E)-2-{5-[2-(1-methylpiperidin-4-yl)ethoxy]pyridin-2-yl}vinyl]-1H-indazol-6-yl}thio)benzamide]
1 to 10	1 to 10	1 to 10	0.01 to 0.05	6000 to 60000	CNC(=O)c1ccccc1Sc1ccc2c(/C=C/c3ccn(CCCN4CCCC4)n3)n[nH]c2c1 [Compound I-11, N-methyl-2-({3-[(E)-2-{1-[3-(pyrrolidin-1-yl)propyl]-1H-pyrazole-3-yl}vinyl]-1H-indazol-6-yl}thio)benzamide]
1 to 10	1 to 10	1 to 10	0.01 to 0.05	6000 to 60000	CNC(=O)c1ccccc1Sc1ccc2c(/C=C/c3cccc(OCCN4CCCC4)c3)n[nH]c2c1 [Compound I-15, N-methyl-2-({3-[(E)-2-{3-[2-(pyrrolidin-1-yl)ethoxy]phenyl}vinyl]-1H-indazol-6-yl}thio)benzamide]
1 to 10	1 to 10	1 to 10	< 0.01	6000 to 60000	CNC(=O)c1ccccc1Sc1ccc2c(C#Cc3ccc(OCCN4CCCC4)cn3)n[nH]c2c1 [Compound I-16, N-methyl-2-{[3-(2-{5-[2-(pyrrolidin-1-yl)ethoxy]pyridin-2-yl}ethynyl)-1H-indazol-6-yl]thio}benzamide]

Second part, the compound before the results:

Compound	IC50 [1] [nM]	IC50 [2] [nM]	IC50 [3] [nM]	fraction unbound at 2 h, 2 μM [4]	IC50 [5] [nM]
CNC(=O)c1ccccc1Sc1ccc2c(/C=C/c3ccc(OCC4CCN(C)C4)cn3)n[nH]c2c1 (centres unmarked) [Compound I-1, N-methyl-2-({3-[(E)-2-{5-[(1-methylpyrrolidin-3-yl)methoxy]pyridin-2-yl}vinyl]-1H-indazol-6-yl}thio)benzamide]	≤ 1	≤ 1	≤ 1	> 0.05	–
CNC(=O)c1ccccc1Sc1ccc2c(/C=C/c3ccc(OCCN4CCN(C)CC4)cn3)n[nH]c2c1 [Compound I-4, N-methyl-2-({3-[(E)-2-{5-[2-(4-methylpiperazin-1-yl)ethoxy]pyridin-2-yl}vinyl]-1H-indazol-6-yl}thio)benzamide]	≤ 1	≤ 1	≤ 1	> 0.05	6000 to 60000
O=C(NC1CC1)c1ccccc1Sc1ccc2c(/C=C/c3ccc(OCCN4CCCC4)cn3)n[nH]c2c1 [Compound I-8, N-cyclopropyl-2-({3-[(E)-2-{5-[2-(pyrrolidin-1-yl)ethoxy]pyridin-2-yl}vinyl]-1H-indazol-6-yl}thio)benzamide]	1 to 10	1 to 10	1 to 10	0.01 to 0.05	6000 to 60000
CNC(=O)c1ccccc1Sc1ccc2c(/C=C/c3ccn(CCN4CCCC4)n3)n[nH]c2c1 [Compound I-13, N-methyl-2-({3-[(E)-2-{1-[2-(pyrrolidin-1-yl)ethyl]-1H-pyrazole-3-yl}vinyl]-1H-indazol-6-yl}thio)benzamide]	1 to 10	1 to 10	≤ 1	0.01 to 0.05	6000 to 60000
O=C(NC1CC1)c1ccccc1Sc1ccc2c(/C=C/c3cc(CCCN4CCCC4)ccn3)n[nH]c2c1 [Compound I-120, N-cyclopropyl-2-({3-[(E)-2-{4-[3-(pyrrolidin-1-yl)propyl]pyridin-2-yl}vinyl]-1H-indazol-6-yl}thio)benzamide]	≤ 1	1 to 10	1 to 10	–	> 60000
O=C(NC1CC1)c1ccccc1Sc1ccc2c(/C=C/c3cccc(CCCN4CCCC4)n3)n[nH]c2c1 [Compound I-121, N-cyclopropyl-2-({3-[(E)-2-{6-[3-(pyrrolidin-1-yl)propyl]pyridin-2-yl}vinyl]-1H-indazol-6-yl}thio)benzamide]	≤ 1	1 to 10	≤ 1	–	6000 to 60000
